In US20180116975A1, “COMPOSITIONS AND COMBINATIONS FOR THE TREATMENT OF ANGIOGENESIS DISEASES AND DISORDERS” (BIOMAS LTD., priority 2015, published 2018):

Tested on: patients with AMD (PED, subretinal fluid)
Experiment: Clinical study (compassionate treatment): oral AS101 in conjunction with intra vitreal anti VEGF injections
Type: in vivo, human
From the text: Patients were orally administered with AS101/Formula I in conjunction with intraocular injections of intra vitreal anti VEGF. […] A special compassionate approval has been given by the local committee of ethics in Meir medical center, Kfar Saba, and the Ministry of Health in Israel to treat these two patients with orally taken AS101.
Patient underwent an additional intra-vitreal Lucentis injection and from this point examination continued every month with treatment in PRN mode. Until Jul. 26, 2012 the patient underwent 9 intra-vitreal Lucentis injections. On January 2013 treatment was switched to Aflibercept (Eylea) and the patient received 3 montly injection and an additional injection on Jun. 18, 2013.
The patient received an intravitreal triancinolon acetonid injection followed by the 3rd lucentis one week later. […] The patient received 2 additional Lucentis injections and on Nov. 27, 2012 treatment was switched to Eylea when it became available in Israel. The patient received 8 monthly Eylea injections, the last one on Jun. 18, 2013.
On Jul. 7, 2013, the patient started to receive 12 drops of AS101 every day orally. On Aug.
Except for one occasion of a 5 month interval between 2 injections, the patient received an injection every month. […] Four days after the last Lucentis injection, on 13 Aug. 2013 the patient started to take 12 drops of AS101 orally.

Molecule: Cl[TeH]1(Cl)(Cl)OCCO1 [AS101]
- OCT finding after discontinuation of AS101 (Case 1, 3 weeks after AS101 was discontinued): development of new subretinal fluid in both eyes
- time without need for additional injections (Case 1, left eye, until discontinuation of AS101): 8 months
- subretinal fluid at the base of the PED (OCT) (Case 1, left eye, 12 drops AS101 daily orally, one month after Lucentis with triamcinilon acetonide injections): decrease of the amount of the subretinal fluid
- subretinal fluid at the slope of the PED (OCT) (Case 1, left eye, next 3 monthly OCT tests after cataract surgery, on AS101): absorbed for the first time since it appeared
- time without need for intravitreal injections (Case 1, right eye, until discontinuation of AS101): 10 months
- adverse events (Case 2, 12 drops AS101 orally): No adverse events were reported
- last visual acuity (Case 2, left eye, Nov. 11, 2014, on AS101 (20/200 at diagnosis)): 20/50
- last visual acuity (Case 2, right eye, Nov. 11, 2014, on AS101): 20/30
- Angiogenesis inhibitor injections during treatment according to the invention (Patient #1, LE (left eye), in 9 months, oral AS101): LE: 1 injection in 9
- maximal time interval between injections (Patient #2, during AS 101 treatment with Lucentis): injections: 14 months
- Angiogenesis inhibitor injections during treatment according to the invention (Patient #2, in 27 months, 12 drops AS101 orally, Lucentis PRN): 4 injections
- Angiogenesis inhibitor injections during treatment according to the invention (Patient #2, in 27 months, 12 drops AS101 orally, Lucentis PRN, listed as AS 101): 4 injections in 27
- progression of drusens/dry AMD to Wet AMD (observation during the compassionate treatment): did not developed to Wet AMD
- time intervals between Ranibizumab injections (patient suffering from AMD, otherwise injected every month, with AS-101): 9 months

Molecule: Aflibercept [Eylea, reference compound]
- amount of the subretinal fluid over the peak of the PED and at the slope (Case 1, left eye, 8 monthly injections, before AS101): did not change

B1: Ranibizumab (antibody, chains of the INN, looked up, V domains shown)
VH: EVQLVESGGGLVQPGGSLRLSCAASGYDFTHYGMNWVRQAPGKGLEWVGWINTYTGEPTYAADFKRRFTFSLDTSKSTAYLQMNSLRAEDTAVYYCAKYPYYYGTSHWYFDVWGQGTLVTVSS
VL: DIQLTQSPSSLSASVGDRVTITCSASQDISNYLNWYQQKPGKAPKVLIYFTSSLHSGVPSRFSGSGSGTDFTLTISSLQPEDFATYYCQQYSTVPWTFGQGTKVEIK
- subretinal fluid (OCT) (Case 1, right eye, 3 intra-vitreal injections in one month intervals, before AS101): resolution of the subretinal fluid
